These results are taken from PMC8512844, “Olive Pomace Phenolic Compounds Stability and Safety Evaluation: From Raw Material to Future Ophthalmic Applications” (Molecules, 2021).

The structures appear in SMILES notation.

Series [1] can be described thus: Long-term storage stability of aqueous solutions (CPMP/ICH/2736/99), HPLC-DAD relative quantification. It is filed as physicochemical. The following applies: for kobs (first-order degradation rate constant) / t1/2 (half-time period) / tlag (lag time): pure aqueous solution; for stability as pure solution: first 30 days. The protocol: According to the guidance CPMP/ICH/2736/99, aqueous solutions of HT, OL, OPT3 extract, and CONV extract were stored at four different conditions of temperature (ambient, refrigerated, […], and intermediate) and humidity. The conditions were: T = 5 ± 3 °C (with no humidity), T = 25 ± 2 °C (with 60 ± 5% RH), T = 30 ± 2 °C (with 65 ± 5% RH) and T = 40 ± 2 °C (with 75 ± 5% RH) up to a final duration of 6 months. For OPT3, HT was relatively quantified as % with respect to the concentration (C0) at the initial time (t0), while for CONV both % HT and % OL content were calculated similarly. […] The stability of up to 6 months is presented in the Figure S1 of the Supplementary Material. […] The lag time (tlag) represents the time that the concentration of the compound remains constant and, if present, is determined as the intercept of the initial degradation time with the initial concentration value. The half-life period (t1/2) is calculated from Equation (2). The degradation constant (kobs), the t1/2, and the time lag (tlag) together with the correlation coefficient (R^2) for each compound and storage condition are presented in Table 5. ln(C0/Ct) = kobs(t - tlag)(1) t1/2 = ln(2)/k + tlag(2) The quantitative determination of HT, TY, and OL was performed by an HPLC-DAD system: Waters e2695 separation module with an autosampler (20 μL injection volume) and a quaternary pump, coupled with Waters 2998 photodiode array detector set at 280 nm (Waters®, Dublin, Ireland). A C18 Mediterranean Sea column (250 × 4.6 mm, 5 μm) (Teknokroma Analítica S.A., Barcelona, Spain) at 35 °C connected with an OptiGuard 1 mm guard column (Sigma-Aldrich, St. Louis, MO, USA) were used. The gradient method, together with the eluents and the elution program used, were selected according to […] et al.. Calibration curves for OL (range: 12.5-1250 mg/L, linearity: […] R^2 = 0.9969) were prepared, using standard solutions of the compounds in DMSO, and analyzed in the same conditions as the samples. Compounds in the extracts were identified by comparing the retention time and the UV spectra of the samples with those of the standard solutions, while MS spectra were also used to confirm identification (see 3.7.1. for experimental conditions). […] Samples and calibration curves of standard solutions were analyzed within the same day. For the 6-months storage stability, relative quantification was performed with respect to the initial quantity t0 of each analyte. For data acquisition and processing, Empower® 3 software (Waters®, Dublin, Ireland) was used. Briefly, all compounds and extracts were dissolved in Milli-Q water, as high mineralization could increase the degradation of these substances. Additionally, according to the bibliography, lower concentrations could accelerate the decomposition of a compound. […] All solutions were filtered through a 0.20 μm polyvinylidene fluoride filter. […] To fix the desired humidity for each temperature, appropriate salts have been used according to the bibliography. […] The vials were placed in big glass containers, together with a sufficient quantity of each salt. Then, they were closed airtight and left in different rooms of controlled temperature and protected from light for 6 months. […] For CONV, HT and OL content were measured, while for OPT3 only HT content was calculated due to the lack of OL in this extract. All samples were analyzed in triplicate and the results are expressed as mean of the percentage with respect to the initial concentration t0 ± SD.

Series [2] deals with human corneal epithelial (HCE) cells. The series can be described thus: In vitro genotoxicity, alkaline comet assay. To be noted: 24 h, 0.8 mg/mL CONV, 0.4 mg/mL OPT3, 300 μM OL, 100 μM HT, 5 μM + 50 μM OL+HT. The series is classed as cell-based. The text has this:
(§1) According to the ICH guideline S2 (R1), comet assay evaluates the cell DNA damage under a neutral or alkaline electrophoretic field. This leads to the separation between intact and damaged cellular DNA, creating the typical “comet tail” visible from a microscope. By measuring this tail, the extent of the DNA damage can be estimated. In this study, we applied alkaline electrophoresis, because it is more sensitive and can detect smaller amounts of DNA damages, including single and double-stranded DNA breaks, alkali labile DNA adducts, and most oxidative DNA damage.
(§2) Two different human ocular surface cell lines were selected for this assay: HCE and the IM-ConjEpi. The two selected OP extracts (CONV and OPT3) were tested for their in vitro genotoxicity on both cell lines, together with the two principal pure olive compounds OL and HT, alone or in combination (OL+HT). For each compound or extract, the maximum allowable concentration was selected to be tested, based on the results of their in vitro cytotoxicity on the same cell lines, as previously described.
(§3) HCE is an immortalized human corneal epithelial cell line, kindly offered by Dr. Arto Urti (University of Helsinki, Finland). It was cultured in DMEM/F-12 + GlutaMax supplemented with 10% fetal bovine serum, 10 ng/mL human epithelial growth factor, 5 μg/mL human insulin and antibiotics (100 U/mL penicillin + 0.1 mg/mL streptomycin). IM-ConjEpi was supplied by Innoprot (Derio, Spain. Ref. P10870-IM) and is an SV40- Large T Antigen immortalized human conjunctival epithelial cell line. It was cultured in DMEM/F-12 + GlutaMax supplemented with 10% fetal bovine serum, 10 ng/mL human epithelial growth factor, 1 μg/mL bovine insulin and antibiotics ([…]). HCE cell line was used from passage 25 to 35, while IM-ConjEpi from passage 10 to 20.
(§4) The cells were incubated at 37 °C and 5:95 = CO2:air atmosphere ratio, while their medium was changed every second day. Observations through a phase-contrast microscope were carried out daily.
(§5) For the in vitro tests, HT, OL, CONV, and OPT3 were dissolved in culture medium (DMEM/F-12 + GlutaMax, without any supplement) the day of the experiment. As previously described, CONV was produced by conventional solid–liquid extraction using freeze-dried material without any further pretreatment. OPT3 was generated by PLE extraction using freeze-dried material previously defatted with scCO2. The part of the extracts not dissolved to the culture medium was filtered through a 0.20 μm polyvinylidene fluoride sterile filter. The in vitro concentrations were selected according to a previous study, which described the maximum allowable non-toxic concentration of HT, OL, CONV, and OPT3 on the two ocular surface cell lines used. […]

For series [3], the system named is immortalized human conjunctival epithelial (IM-ConjEpi) cells. The series can be described thus: In vitro genotoxicity, alkaline comet assay. It is filed as cell-based. To be noted: 24 h, 0.8 mg/mL CONV, 0.4 mg/mL OPT3, 300 μM OL, 100 μM HT, 5 μM + 50 μM OL+HT.
From the text: as §1, §2, §3, §4, §5

With `OCCc1ccc(O)c(O)c1` [HT, hydroxytyrosol], in series [1] (5 °C, first month), the “stability as standard solution” value was “stable at a high percentage for the entire month”. For the same molecule, the “time from which the standard solution is completely degraded” value is given as “fourth month” in series [1] (25 °C); “third month” in series [1] (30 °C and 40 °C). Besides, the “kobs (first-order degradation rate constant)” value in series [1] (T = 5 °C/no humidity) came to 0.0069 day⁻¹; in series [1] (T = 25 °C/60% RH), 0.0337 day⁻¹; in series [1] (T = 30 °C/65% RH) it was 0.1068 day⁻¹; in series [1] (T = 40 °C/75% RH), 0.1234 day⁻¹. Also, the “t1/2 (half-time period)” value was 101.5 days in series [1] (T = 5 °C/no humidity), 21.6 days in series [1] (T = 25 °C/60% RH), 6.5 days in series [1] (T = 30 °C/65% RH) and 5.6 days in series [1] (T = 40 °C/75% RH). In addition, the “tlag (lag time)” value in series [1] (T = 5 °C/no humidity) amounted to 1.0 days; in series [1] (T = 25 °C/60% RH) it was 1.0 days; in series [1] (T = 30 °C/65% RH), 0 days; in series [1] (T = 40 °C/75% RH), 0 days. Further, the “Genotoxic effect (%TDNA) versus control group” value in series [2] and in series [3] was “No statistically significant differences” in each case.
Take `C/C=C1/[C@H](O[C@@H]2O[C@H](CO)[C@@H](O)[C@H](O)[C@H]2O)OC=C(C(=O)OC)[C@H]1CC(=O)OCCc1ccc(O)c(O)c1` [OL, oleuropein]: the “stability as pure solution” value in series [1] (5 °C or 25 °C) is “remains at high levels”; in series [1] (temperature values above 30 °C) it was “highly unstable”. Moreover, the “stability as standard solution” value in series [1] (25 °C or below) is “stable for up to 1 month”. Also, the half-life at 113 mg/L in series [1] (aqueous solution of the pure compound, pure solution, temperature above 30 °C, read-out: t1/2 (time to reduce the concentration to half of the initial value) (converted)) is roughly 72 h. Also, the “kobs (first-order degradation rate constant)” value in series [1] (T = 5 °C/no humidity) turned out to be 0.0099 day⁻¹; in series [1] (T = 25 °C/60% RH), 0.0065 day⁻¹; in series [1] (T = 30 °C/65% RH), 0.4022 day⁻¹; in series [1] (T = 40 °C/75% RH), 0.3658 day⁻¹. The “t1/2 (half-time period)” value in series [1] (T = 5 °C/no humidity) turned out to be 81.3 days; in series [1] (T = 25 °C/60% RH) it was 116.5 days; in series [1] (T = 30 °C/65% RH) it was 1.7 days; in series [1] (T = 40 °C/75% RH) it was 1.9 days. For the same molecule, the “tlag (lag time)” value was determined as 11.3 days in series [1] (T = 5 °C/no humidity), 9.9 days in series [1] (T = 25 °C/60% RH), 0 days in series [1] (T = 30 °C/65% RH) and 0 days in series [1] (T = 40 °C/75% RH). Moreover, the “time the compound remains stable” value in series [1] (pure solution, temperature values below 25 °C) was “approximately 11 days”. In addition, the “final content compared to t0” value in series [1] (standard solution, 5 °C and 25 °C, 6 months) is on record as “ca. 35%”. In addition, the “Genotoxic effect (%TDNA) versus control group” value in series [2] and in series [3] was “No statistically significant differences” in each case.
